Paper PMC6904773, “Structural and functional characterization of buffalo oviduct-specific glycoprotein (OVGP1) expressed during estrous cycle” (Bioscience Reports, 2019)

Tests used:
[1] = molecular target: T1, recombinant OVGP1 (buffalo oviduct-specific glycoprotein) (Bubalus bubalis, UniProt A4Z8Y1); test: intrinsic Trp fluorescence quenching (ex […] nm); type: binding; conditions: 10 uM protein, 5-15 mM ligand, 25 mM phosphate buffered saline, pH 7.2, 298 K
T1 construct: gene OVN; recombinant from Escherichia coli, ~58 kDa
T1 sequence (A4Z8Y1 22-540): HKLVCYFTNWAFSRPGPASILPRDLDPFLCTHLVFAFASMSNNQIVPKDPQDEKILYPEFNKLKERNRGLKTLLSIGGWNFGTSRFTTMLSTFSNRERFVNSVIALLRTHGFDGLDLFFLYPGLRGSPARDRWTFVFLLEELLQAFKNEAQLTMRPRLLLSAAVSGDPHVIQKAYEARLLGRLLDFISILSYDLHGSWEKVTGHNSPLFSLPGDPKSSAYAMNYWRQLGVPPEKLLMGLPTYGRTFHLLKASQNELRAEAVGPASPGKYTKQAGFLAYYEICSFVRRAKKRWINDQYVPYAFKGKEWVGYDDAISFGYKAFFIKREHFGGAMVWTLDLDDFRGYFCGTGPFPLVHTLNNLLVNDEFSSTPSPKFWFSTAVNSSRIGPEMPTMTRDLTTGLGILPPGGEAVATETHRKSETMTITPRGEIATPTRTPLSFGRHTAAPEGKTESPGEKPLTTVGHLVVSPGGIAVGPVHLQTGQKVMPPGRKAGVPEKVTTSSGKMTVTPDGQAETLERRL

[2] = molecular target: T2, native OVGP1 (buffalo oviduct-specific glycoprotein) (Bubalus bubalis, UniProt A4Z8Y1); test: intrinsic Trp fluorescence quenching (ex […] nm); type: binding; conditions: 10 uM protein, 5-15 mM ligand, 25 mM phosphate buffered saline, pH 7.2, 298 K
T2 construct: gene OVN; native, purified to homogeneity from buffalo oviducts; ~55-90 kDa; glycosylated; secreted mature form (precursor 540 aa, signal peptide 21 aa); monomer
T2 sequence (A4Z8Y1 22-540): T1 sequence (A4Z8Y1 22-540)

Compound | intrinsic Trp fluorescence quenching (ex 280 nm) [1] | intrinsic Trp fluorescence quenching (ex 280 nm) [2]
OC[C@H]1OC(O)[C@@H](O)[C@@H](O)[C@@H]1O (stereo partly drawn) [mannose] | monosaccharides i.e. GlcNAc, GalNAc and mannose complexes of both native and recombinant OVGP1 | monosaccharides i.e. GlcNAc, GalNAc and mannose complexes of both native and recombinant OVGP1
CC(=O)N[C@H]1C(O)O[C@H](CO)[C@@H](O)[C@@H]1O (stereo partly drawn) [GlcNAc] | fluorescence intensity of both native and recombinant OVGP1 decreased with increasing concentrations of ligands | fluorescence intensity of both native and recombinant OVGP1 decreased with increasing concentrations of ligands
CC(=O)N[C@H]1C(O)O[C@H](CO)[C@H](O)[C@@H]1O (stereo partly drawn) [GalNAc] | monosaccharides i.e. GlcNAc, GalNAc and mannose complexes of both native and recombinant OVGP1 | monosaccharides i.e. GlcNAc, GalNAc and mannose complexes of both native and recombinant OVGP1
